What was measured:
Assay type in all cases: in vivo
[1] = tested on: directly sown rice; assay: Test Example 3: soil treatment, effect on crop; b: directly sown rice; conditions: treatment dosage 315 g/ha
Outline: (§1)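 Crop and weed responses were judged three weeks after a uniform surface spray of the water-diluted emulsion at the given g/ha rate. Seeds sat beneath about 1.5 cm of sterilized diluvial soil, and boxes stood in a greenhouse at 25 to 30° C.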

[2] = tested on: transplanted rice; assay: Test Example 1: preemergent weed treatment in the submerged state, effect on crop; a: transplanted rice; conditions: treatment dosage 252 g/ha
Outline: (§2)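 Alluvial soil in Wagner pots flooded to 4 cm; barnyard grass, bulrush and oval-leafed pondweed seeds sown, then 2.5-leaf rice seedlings transplanted. Same day, emulsified compound diluted in water to set g/ha dosages and applied to water surface; greenhouse 25–30 °C, effect scored by criteria after 3 weeks.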

[3] = tested on: chickweed; assay: Test Example 4: weedkilling efficacy by foliar treatment; N: chickweed; conditions: treatment dosage 315 g/ha
Outline: (§3)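 Seeds are spot-sown into sterilized diluvial soil and covered with about 1.5 cm of soil. After 14 days' greenhouse growth at 25 to 30° C, plants are sprayed on stems and leaves with diluted emulsion at the stated g/ha rate, then scored at 3 weeks.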

[4] = tested on: corn; assay: Test Example 3: soil treatment, effect on crop; c: corn; conditions: treatment dosage 315 g/ha
Outline: as §1

[5] = tested on: barnyard grass; assay: Test Example 1: weedkilling efficacy, preemergent weed treatment in the submerged state; A: barnyard grass; conditions: treatment dosage 252 g/ha
Outline: as §2

[6] = tested on: black-grass; assay: Test Example 3: weedkilling efficacy through soil treatment; H: black-grass; conditions: treatment dosage 315 g/ha
Outline: as §1

[7] = tested on: green foxtail; assay: Test Example 3: weedkilling efficacy through soil treatment; E: green foxtail; conditions: treatment dosage 315 g/ha
Outline: as §1

[8] = tested on: directly sown rice; assay: Test Example 4: foliar treatment, effect on crop; b: directly sown rice; conditions: treatment dosage 315 g/ha
Outline: as §3

[9] = tested on: Indian mallow; assay: Test Example 3: weedkilling efficacy through soil treatment; K: Indian mallow; conditions: treatment dosage 315 g/ha
Outline: as §1

[10] = tested on: soybean; assay: Test Example 4: foliar treatment, effect on crop; d: soybean; conditions: treatment dosage 315 g/ha
Outline: as §3

[11] = tested on: beet; assay: Test Example 3: soil treatment, effect on crop; f: beet; conditions: treatment dosage 315 g/ha
Outline: as §1

[12] = tested on: beet; assay: Test Example 4: foliar treatment, effect on crop; f: beet; conditions: treatment dosage 315 g/ha
Outline: as §3

[13] = tested on: oval-leafed pondweed; assay: Test Example 2: weedkilling efficacy, growth period weed treatment in the submerged state; C: oval-leafed pondweed; conditions: treatment dosage 252 g/ha
Outline: (§4)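 First, alluvial soil in pots is flooded to 4 cm and mixed seed is sown. Next, plants grow in a greenhouse at 25 to 30° C until the 1-2 leaf stage. Then diluted emulsion is applied onto the water surface at the given g/ha rate, and injury is assessed after 3 weeks.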

[14] = tested on: green foxtail; assay: Test Example 4: weedkilling efficacy by foliar treatment; E: green foxtail; conditions: treatment dosage 315 g/ha
Outline: as §3

[15] = tested on: corn; assay: Test Example 4: foliar treatment, effect on crop; c: corn; conditions: treatment dosage 315 g/ha
Outline: as §3

[16] = tested on: wheat; assay: Test Example 4: foliar treatment, effect on crop; e: wheat; conditions: treatment dosage 315 g/ha
Outline: as §3

[17] = tested on: Indian mallow; assay: Test Example 4: weedkilling efficacy by foliar treatment; K: Indian mallow; conditions: treatment dosage 315 g/ha
Outline: as §3

[18] = tested on: black-grass; assay: Test Example 4: weedkilling efficacy by foliar treatment; H: black-grass; conditions: treatment dosage 315 g/ha
Outline: as §3

[19] = tested on: fig-leafed goosefoot; assay: Test Example 4: weedkilling efficacy by foliar treatment; M: fig-leafed goosefoot; conditions: treatment dosage 315 g/ha
Outline: as §3

[20] = tested on: birds-eye speedwell; assay: Test Example 3: weedkilling efficacy through soil treatment; p: birds-eye speedwell; conditions: treatment dosage 315 g/ha
Outline: as §1

[21] = tested on: bulrush; assay: Test Example 1: weedkilling efficacy, preemergent weed treatment in the submerged state; B: bulrush; conditions: treatment dosage 252 g/ha
Outline: as §2

[22] = tested on: crabgrass; assay: Test Example 3: weedkilling efficacy through soil treatment; D: crabgrass; conditions: treatment dosage 315 g/ha
Outline: as §1

[23] = tested on: crabgrass; assay: Test Example 4: weedkilling efficacy by foliar treatment; D: crabgrass; conditions: treatment dosage 315 g/ha
Outline: as §3

[24] = tested on: soybean; assay: Test Example 3: soil treatment, effect on crop; d: soybean; conditions: treatment dosage 315 g/ha
Outline: as §1

[25] = tested on: wheat; assay: Test Example 3: soil treatment, effect on crop; e: wheat; conditions: treatment dosage 315 g/ha
Outline: as §1

[26] = tested on: redroot pigweed; assay: Test Example 4: weedkilling efficacy by foliar treatment; L: redroot pigweed; conditions: treatment dosage 315 g/ha
Outline: as §3

[27] = tested on: bulrush; assay: Test Example 2: weedkilling efficacy, growth period weed treatment in the submerged state; B: bulrush; conditions: treatment dosage 252 g/ha
Outline: as §4

[28] = tested on: wild oat; assay: Test Example 3: weedkilling efficacy through soil treatment; G: wild oat; conditions: treatment dosage 315 g/ha
Outline: as §1

[29] = tested on: chickweed; assay: Test Example 3: weedkilling efficacy through soil treatment; N: chickweed; conditions: treatment dosage 315 g/ha
Outline: as §1

[30] = tested on: Italian ryegrass; assay: Test Example 4: weedkilling efficacy by foliar treatment; I: Italian ryegrass; conditions: treatment dosage 315 g/ha
Outline: as §3

[31] = tested on: Italian ryegrass; assay: Test Example 3: weedkilling efficacy through soil treatment; I: Italian ryegrass; conditions: treatment dosage 315 g/ha
Outline: as §1

[32] = tested on: barnyard grass; assay: Test Example 2: weedkilling efficacy, growth period weed treatment in the submerged state; A: barnyard grass; conditions: treatment dosage 252 g/ha
Outline: as §4

[33] = tested on: fig-leafed goosefoot; assay: Test Example 3: weedkilling efficacy through soil treatment; M: fig-leafed goosefoot; conditions: treatment dosage 315 g/ha
Outline: as §1

[34] = tested on: oval-leafed pondweed; assay: Test Example 1: weedkilling efficacy, preemergent weed treatment in the submerged state; C: oval-leafed pondweed; conditions: treatment dosage 252 g/ha
Outline: as §2

[35] = tested on: catchweed; assay: Test Example 4: weedkilling efficacy by foliar treatment; O: catchweed; conditions: treatment dosage 315 g/ha
Outline: as §3

[36] = tested on: birds-eye speedwell; assay: Test Example 4: weedkilling efficacy by foliar treatment; p: birds-eye speedwell; conditions: treatment dosage 315 g/ha
Outline: as §3

[37] = tested on: redroot pigweed; assay: Test Example 3: weedkilling efficacy through soil treatment; L: redroot pigweed; conditions: treatment dosage 315 g/ha
Outline: as §1

SMILES | b (directly sown rice) effect on crop grade [1] | a (transplanted rice) effect on crop grade [2] | N (chickweed) weedkilling efficacy grade [3] | c (corn) effect on crop grade [4] | A (barnyard grass) weedkilling efficacy grade [5] | H (black-grass) weedkilling efficacy grade [6] | E (green foxtail) weedkilling efficacy grade [7] | b (directly sown rice) effect on crop grade [8] | K (Indian mallow) weedkilling efficacy grade [9] | d (soybean) effect on crop grade [10] | f (beet) effect on crop grade [11] | f (beet) effect on crop grade [12] | C (oval-leafed pondweed) weedkilling efficacy grade [13] | E (green foxtail) weedkilling efficacy grade [14] | c (corn) effect on crop grade [15] | e (wheat) effect on crop grade [16] | K (Indian mallow) weedkilling efficacy grade [17] | H (black-grass) weedkilling efficacy grade [18] | M (fig-leafed goosefoot) weedkilling efficacy grade [19] | P (birds-eye speedwell) weedkilling efficacy grade [20] | further results
CC1=C(c2ccsc2)C(=O)N(C(C)(C)C(=O)Nc2nc(C(C)C)ns2)CO1 [B-1-03] | 5 (weed kill ratio 90% or more, (practically complete withering)) | 3 (weed kill ratio 40% or more, less than 70%) | 3 (weed kill ratio 40% or more, less than 70%) | 0 (weed kill ratio 5% or less (practically no effect)) | 5 (weed kill ratio 90% or more, (practically complete withering)) | 5 (weed kill ratio 90% or more, (practically complete withering)) | 5 (weed kill ratio 90% or more, (practically complete withering)) | 4 (weed kill ratio 70% or more, less than 90%) | 4 (weed kill ratio 70% or more, less than 90%) | 4 (weed kill ratio 70% or more, less than 90%) | 3 (weed kill ratio 40% or more, less than 70%) | 3 (weed kill ratio 40% or more, less than 70%) | 5 (weed kill ratio 90% or more, (practically complete withering)) | 4 (weed kill ratio 70% or more, less than 90%) | 2 (weed kill ratio 20% or more, less than 40%) | 0 (weed kill ratio 5% or less (practically no effect)) | 4 (weed kill ratio 70% or more, less than 90%) | 5 (weed kill ratio 90% or more, (practically complete withering)) | 5 (weed kill ratio 90% or more, (practically complete withering)) | 5 (weed kill ratio 90% or more, (practically complete withering)) | B (bulrush) weedkilling efficacy grade [21]: 5 (weed kill ratio 90% or more, (practically complete withering)); D (crabgrass) weedkilling efficacy grade [22]: 5 (weed kill ratio 90% or more, (practically complete withering)); D (crabgrass) weedkilling efficacy grade [23]: 4 (weed kill ratio 70% or more, less than 90%); d (soybean) effect on crop grade [24]: 0 (weed kill ratio 5% or less (practically no effect)); e (wheat) effect on crop grade [25]: 3 (weed kill ratio 40% or more, less than 70%); L (redroot pigweed) weedkilling efficacy grade [26]: 4 (weed kill ratio 70% or more, less than 90%); B (bulrush) weedkilling efficacy grade [27]: 5 (weed kill ratio 90% or more, (practically complete withering)); G (wild oat) weedkilling efficacy grade [28]: 5 (weed kill ratio 90% or more, (practically complete withering)); N (chickweed) weedkilling efficacy grade [29]: 3 (weed kill ratio 40% or more, less than 70%); I (Italian ryegrass) weedkilling efficacy grade [30]: 5 (weed kill ratio 90% or more, (practically complete withering)); I (Italian ryegrass) weedkilling efficacy grade [31]: 5 (weed kill ratio 90% or more, (practically complete withering)); A (barnyard grass) weedkilling efficacy grade [32]: 5 (weed kill ratio 90% or more, (practically complete withering)); M (fig-leafed goosefoot) weedkilling efficacy grade [33]: 5 (weed kill ratio 90% or more, (practically complete withering)); C (oval-leafed pondweed) weedkilling efficacy grade [34]: 5 (weed kill ratio 90% or more, (practically complete withering)); O (catchweed) weedkilling efficacy grade [35]: 3 (weed kill ratio 40% or more, less than 70%); P (birds-eye speedwell) weedkilling efficacy grade [36]: 4 (weed kill ratio 70% or more, less than 90%); L (redroot pigweed) weedkilling efficacy grade [37]: 4 (weed kill ratio 70% or more, less than 90%)
CC1=C(c2ccc(Cl)s2)C(=O)N(C(C)(C)C(=O)Nc2cccc(Cl)n2)CO1 [B-2-02] | 2 (weed kill ratio 20% or more, less than 40%) | 0 (weed kill ratio 5% or less (practically no effect)) | 0 (weed kill ratio 5% or less (practically no effect)) | 0 (weed kill ratio 5% or less (practically no effect)) | 5 (weed kill ratio 90% or more, (practically complete withering)) | 5 (weed kill ratio 90% or more, (practically complete withering)) | 3 (weed kill ratio 40% or more, less than 70%) | 4 (weed kill ratio 70% or more, less than 90%) | 3 (weed kill ratio 40% or more, less than 70%) | 0 (weed kill ratio 5% or less (practically no effect)) | 0 (weed kill ratio 5% or less (practically no effect)) | 3 (weed kill ratio 40% or more, less than 70%) | 5 (weed kill ratio 90% or more, (practically complete withering)) | 3 (weed kill ratio 40% or more, less than 70%) | 0 (weed kill ratio 5% or less (practically no effect)) | 0 (weed kill ratio 5% or less (practically no effect)) | 0 (weed kill ratio 5% or less (practically no effect)) | 4 (weed kill ratio 70% or more, less than 90%) | 3 (weed kill ratio 40% or more, less than 70%) | 2 (weed kill ratio 20% or more, less than 40%) | B (bulrush) weedkilling efficacy grade [21]: 5 (weed kill ratio 90% or more, (practically complete withering)); D (crabgrass) weedkilling efficacy grade [22]: 5 (weed kill ratio 90% or more, (practically complete withering)); D (crabgrass) weedkilling efficacy grade [23]: 4 (weed kill ratio 70% or more, less than 90%); d (soybean) effect on crop grade [24]: 0 (weed kill ratio 5% or less (practically no effect)); e (wheat) effect on crop grade [25]: 3 (weed kill ratio 40% or more, less than 70%); L (redroot pigweed) weedkilling efficacy grade [26]: 4 (weed kill ratio 70% or more, less than 90%); B (bulrush) weedkilling efficacy grade [27]: 5 (weed kill ratio 90% or more, (practically complete withering)); N (chickweed) weedkilling efficacy grade [29]: 3 (weed kill ratio 40% or more, less than 70%); I (Italian ryegrass) weedkilling efficacy grade [30]: 3 (weed kill ratio 40% or more, less than 70%); I (Italian ryegrass) weedkilling efficacy grade [31]: 5 (weed kill ratio 90% or more, (practically complete withering)); A (barnyard grass) weedkilling efficacy grade [32]: 5 (weed kill ratio 90% or more, (practically complete withering)); M (fig-leafed goosefoot) weedkilling efficacy grade [33]: 0 (weed kill ratio 5% or less (practically no effect)); C (oval-leafed pondweed) weedkilling efficacy grade [34]: 5 (weed kill ratio 90% or more, (practically complete withering)); O (catchweed) weedkilling efficacy grade [35]: 0 (weed kill ratio 5% or less (practically no effect)); P (birds-eye speedwell) weedkilling efficacy grade [36]: 1 (weed kill ratio 5% or more, less than 20%); L (redroot pigweed) weedkilling efficacy grade [37]: 3 (weed kill ratio 40% or more, less than 70%)

— patent US9738634B2, “Heterocyclic amide compound and herbicide” (SYNGENTA PARTICIPATIONS AG, priority 2013, dated 2017)
